Assay results as given in patent publication US10053431B2, “Tetrahydro-benzodiazepinones” (priority 2013, dated 2018).
Where a name gives a salt, the structure may show the parent alone.

Key:
[1] = molecular target: BIR2 domain of XIAP (Homo sapiens (Human), UniProt P98170, C202A/C213G); assay: TR-FRET assay for BIR2 (inhibition of binding of XIAP BIR2 domain to SMAC-derived Peptide A); details: 6x His-tagged BIR2 domain (aa 124-240 of XIAP) 10 nM, Peptide A 20 nM, TR-FRET; read-out: IC50 BIR2
[2] = molecular target: BIR3 domain of XIAP (Homo sapiens (Human), UniProt P98170); assay: TR-FRET assay for BIR3 (inhibition of binding of XIAP BIR3 domain to SMAC-derived Peptide A); details: 6x His-tagged BIR3 domain (aa 241-356 of XIAP) 10 nM, Peptide A 20 nM, TR-FRET
BIR3 domain of XIAP, sequence (P98170 241-356 with tags or gaps limits assumed): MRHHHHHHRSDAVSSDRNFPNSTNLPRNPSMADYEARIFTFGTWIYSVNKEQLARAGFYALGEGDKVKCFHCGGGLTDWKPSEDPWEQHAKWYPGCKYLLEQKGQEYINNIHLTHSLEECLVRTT

BIR2 domain of XIAP, sequence (P98170 124-240 with tags or gaps C202A/C213G limits assumed): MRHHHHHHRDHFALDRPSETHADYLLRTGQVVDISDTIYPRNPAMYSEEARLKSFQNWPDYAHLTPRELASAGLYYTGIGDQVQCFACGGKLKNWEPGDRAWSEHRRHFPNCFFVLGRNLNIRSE

IC50 [1] | IC50 [2] | SMILES
85.3 nM | > 54.8 µM | CN[C@@H](C)C(=O)N[C@@H]1C(=O)N(CC(=O)Nc2c(F)cccc2F)c2ccccc2N(C(C)=O)[C@H]1C [Example 190, (S)-N-((2S,3S)-1-acetyl-5-(2-(2,6-difluorophenylamino)-2-oxoethyl)-2-methyl-4-oxo-2,3,4,5-tetrahydro-1H-benzo[b][1,4]diazepin-3-yl)-2-(methylamino)propanamide hydrochloride]
434 nM | > 54.8 µM | CN[C@@H](C)C(=O)N[C@@H]1C(=O)N(CC(=O)Nc2ccccc2)c2ccccc2N(C(C)=O)[C@H]1C [Example 191, (S)-N-((2S,3S)-1-acetyl-2-methyl-4-oxo-5-(2-oxo-2-(phenylamino)ethyl)-2,3,4,5-tetrahydro-1H-benzo[b][1,4]diazepin-3-yl)-2-(methylamino)propanamide hydrochloride]
